In the experiment the test system is TrkB. Briefly: TrkB phosphorylation assay: potentiation of BDNF-induced TrkB phosphorylation in cortical neurons. It is filed as cell-based. The note with it: potentation at a PAM concentration of 10 nM of 0.4 nM BDNF-induced TrkB phosphorylation in cortical neurons. An excerpt: It is meant by “positive allosteric modulator” (PAM), also known as allosteric enhancer or potentiator, a compound that induces an amplification of the effect of receptor's response to the primary ligand without directly activating the receptor. Within this invention, PAM TrkB activity is related to the potentation of BDNF effects on the functional activity of the TrkB receptor, measured in vitro or in vivo by mean of a specific TrkB receptor phosphorylation assay.
In Vitro Activity of LIT-TB Derivatives in a TrkB Phosphorylation Assay
Regarding `COc1ccc(CN2CC[C@H](NC(=O)CCc3nnc4ccc(N5CCN(C)CC5)nn34)[C@@H](F)C2)cc1` [LIT-TB052, N-[(3S,4S)-3-fluoro-1-[(4-methoxyphenyl)methyl]piperidin-4-yl]-3-[6-(4-methylpiperazin-1-yl)-[1,2,4]triazolo[4,3-b]pyridazin-3-yl]propanamide], the “PAM TrkB activity” value was “+++ (+++: >35%)”.
`Cc1cc(F)ccc1CN1CCC(NC(=O)CCc2nnc3ccc(N4CCN(C)CC4)nn23)CC1` [LIT-TB044, N-{1-[(4-fluoro-2-methylphenyl)methyl]piperidin-4-yl}-3-[6-(4-methylpiperazin-1-yl)-[1,2,4]triazolo[4,3-b]pyridazin-3-yl]propanamide]: the “PAM TrkB activity” value is “++ (++: 20-35%)”.
`CC(c1ccccc1)N1CCC(NC(=O)CCc2nnc3ccc(N4CCN(C)CC4)nn23)CC1` (centres unmarked) [LIT-TB023, 3-[6-(4-methylpiperazin-1-yl)-[1,2,4]triazolo[4,3-b]pyridazin-3-yl]-N-[1-(1-phenylethyl)piperidin-4-yl]propanamide]: the “PAM TrkB activity” value is “+ (+: <20%)”.
Take `CN1CCN(c2ccc3nnc(CCC(=O)NC4CCNCC4)n3n2)CC1` [LIT-TB021, 3-(6-(4-methylpiperazin-1-yl)-[1,2,4]triazolo[4,3-b]pyridazin-3-yl)-N-(piperidin-4-yl)propanamide]: the “PAM TrkB activity” value is reported as “+ (+: <20%)”.
Take `CN1CCN(c2ccc3nnc(CCC(=O)NC4CCN(C(=O)c5ccccc5)CC4)n3n2)CC1.Cl` [LIT-TB027, N-(1-benzoylpiperidin-4-yl)-3-[6-(4-methylpiperazin-1-yl)-[1,2,4]triazolo[4,3-b]pyridazin-3-yl]propanamide hydrochloride]: the “PAM TrkB activity” value is given as “+ (+: <20%)”.
Turning to `CN1CCN(c2ccc3nnc(CCC(=O)N[C@@H]4CCN(Cc5ccccc5)C[C@H]4F)n3n2)CC1` [LIT-TB049, N-[(3R,4R)-1-benzyl-3-fluoropiperidin-4-yl]-3-[6-(4-methylpiperazin-1-yl)-[1,2,4]triazolo[4,3-b]pyridazin-3-yl]propanamide], the “PAM TrkB activity” value is “+++ (+++: >35%)”.
The value for `CN1CCN(c2ccc3nnc(CCC(=O)NC4CCN(Cc5ccc(F)cc5)CC4)n3n2)CC1` [LIT-TB020, N-{1-[(4-fluorophenyl)methyl]piperidin-4-yl}-3-[6-(4-methylpiperazin-1-yl)-[1,2,4]triazolo[4,3-b]pyridazin-3-yl]propanamide] was “+++ (+++: >35%)”; that for `CN1CCN(c2ccc3nnc(CCC(=O)NC4CCN(c5ccccc5)CC4)n3n2)CC1` [LIT-TB035, 3-[6-(4-methylpiperazin-1-yl)-[1,2,4]triazolo[4,3-b]pyridazin-3-yl]-N-(1-phenylpiperidin-4-yl)propanamide] was “++ (++: 20-35%)”.
`COc1ccc(CN2CCC(NC(=O)CCc3nnc4ccc(N5CCN(C)CC5)nn34)CC2)c(F)c1.Cl.Cl` [LIT-TB046, N-{1-[(2-fluoro-4-methoxyphenyl)methyl]piperidin-4-yl}-3-[6-(4-methylpiperazin-1-yl)-[1,2,4]triazolo[4,3-b]pyridazin-3-yl]propanamide dihydrochloride]: the “PAM TrkB activity” value was “+ (+: <20%)”.
Take `O=C(CCc1nnc2ccc(N3CCN(Cc4ccccc4)CC3)nn12)NC1CCN(Cc2ccccc2)CC1` [LIT-TB005]: the “PAM TrkB activity” value is “+++ (+++: >35%)”.
Regarding `CN1CCN(c2ccc3nnc(CCC(=O)NC4CCN(Cc5ccccc5Cl)CC4)n3n2)CC1` [LIT-TB019, N-{1-[(2-chlorophenyl)methyl]piperidin-4-yl}-3-[6-(4-methylpiperazin-1-yl)-[1,2,4]triazolo[4,3-b]pyridazin-3-yl]propanamide], the “PAM TrkB activity” value was “+++ (+++: >35%)”.
As for `CN1CCN(c2ccc3nnc(CCC(=O)NC4CCN(Cc5ccccc5F)CC4)n3n2)CC1` [LIT-TB022, N-{1-[(2-fluorophenyl)methyl]piperidin-4-yl}-3-[6-(4-methylpiperazin-1-yl)-[1,2,4]triazolo[4,3-b]pyridazin-3-yl]propanamide], the “PAM TrkB activity” value is “+++ (+++: >35%)”.
As for `CN1CCN(c2ccc3nnc(CCC(=O)N[C@@H]4CCN(Cc5ccccc5)C[C@@H]4F)n3n2)CC1` [LIT-TB047, N-[(3S,4R)-1-benzyl-3-fluoropiperidin-4-yl]-3-[6-(4-methylpiperazin-1-yl)-[1,2,4]triazolo[4,3-b]pyridazin-3-yl]propanamide], the “PAM TrkB activity” value is “++ (++: 20-35%)”.
The value for `CN1CCN(c2ccc3nnc(CCC(=O)NC4CCN(Cc5ccc(Cl)c(Cl)c5)CC4)n3n2)CC1` [LIT-TB026, N-{1-[(3,4-dichlorophenyl)methyl]piperidin-4-yl}-3-[6-(4-methylpiperazin-1-yl)-[1,2,4]triazolo[4,3-b]pyridazin-3-yl]propanamide] was “+ (+: <20%)”.
The value for `Cc1ccccc1CN1CCC(NC(=O)CCc2nnc3ccc(N4CCN(C)CC4)nn23)CC1` [LIT-TB024, N-{1-[(2-methylphenyl)methyl]piperidin-4-yl}-3-[6-(4-methylpiperazin-1-yl)-[1,2,4]triazolo[4,3-b]pyridazin-3-yl]propanamide] was “+++ (+++: >35%)”; that for `CN1CCC(NC(=O)CCc2nnc3ccc(N4CCN(C)CC4)nn23)CC1` [LIT-TB016, 3-[6-(4-methylpiperazin-1-yl)-[1,2,4]triazolo[4,3-b]pyridazin-3-yl]-N-(1-methyl-piperidin-4-yl)propanamide] was “+++ (+++: >35%)”.
The entry for `CN1CCN(c2ccc3ncc(CCC(=O)NC4CCN(Cc5ccccc5)CC4)n3n2)CC1` [LIT-TB014, N-(1-benzylpiperidin-4-yl)-3-(6-(4-methylpiperazin-1-yl)imidazo[1,2-b]pyridazin-3-yl)propanamide] is “++ (++: 20-35%)”; for `CN1CCN(c2ccc3nnc(CCC(=O)NC4CCN(Cc5cccc(Cl)c5)CC4)n3n2)CC1` [LIT-TB018, N-{1-[(3-chlorophenyl)methyl]piperidin-4-yl}-3-[6-(4-methylpiperazin-1-yl)-[1,2,4]triazolo[4,3-b]pyridazin-3-yl]propanamide] it is “+++ (+++: >35%)”; for `CN1CCN(c2ccc3ncc(CCC(=O)NC4CCN(Cc5ccccc5)CC4)n3c2)CC1` [LIT-TB013, N-(1-benzylpiperidin-4-yl)-3-(6-(4-methylpiperazin-1-yl)imidazo[1,2-a]pyridin-3-yl)propanamide] it is “+++ (+++: >35%)”.
Turning to `CN1CCN(c2ccc3nnc(CCC(=O)NC4CCN(Cc5ccncc5)CC4)n3n2)CC1` [LIT-TB025, 3-[6-(4-methylpiperazin-1-yl)-[1,2,4]triazolo[4,3-b]pyridazin-3-yl]-N-[1-(pyridin-4-ylmethyl)piperidin-4-yl]propanamide], the “PAM TrkB activity” value is “+ (+: <20%)”.
The value for `CN1CCN(c2ccc3nnc(CCC(=O)NC4CCN(Cc5ccccc5)C(=O)C4)n3n2)CC1` (centres unmarked) [LIT-TB033, N-(1-benzyl-2-oxopiperidin-4-yl)-3-[6-(4-methylpiperazin-1-yl)-[1,2,4]triazolo[4,3-b]pyridazin-3-yl]propanamide] was “+ (+: <20%)”; that for `CN1CCN(c2ccc3nnc(CCCNC4CCN(Cc5ccccc5)CC4)n3n2)CC1` [LIT-TB015, 1-benzyl-N-(3-(6-(4-methylpiperazin-1-yl)-[1,2,4]triazolo[4,3-b]pyridazin-3-yl)propyl)piperidin-4-amine] was “+++ (+++: >35%)”.
For the molecule `COc1ccc(CN2CC[C@@H](NC(=O)CCc3nnc4ccc(N5CCN(C)CC5)nn34)[C@H](F)C2)cc1` [LIT-TB053, N-[(3R,4R)-3-fluoro-1-[(4-methoxyphenyl)methyl]piperidin-4-yl]-3-[6-(4-methylpiperazin-1-yl)-[1,2,4]triazolo[4,3-b]pyridazin-3-yl]propanamide], the “PAM TrkB activity” value is “++ (++: 20-35%)”.
The entry for `O=C(CCc1nnc2ccc(N3CCN(c4ncccn4)CC3)nn12)NC1CCN(Cc2ccccc2)CC1` [LIT-TB004, N-(1-benzylpiperidin-4-yl)-3-(6-(4-(pyrimidin-2-yl)piperazin-1-yl)-[1,2,4]triazolo[4,3-b]pyridazin-3-yl)propanamide] is “+ (+: <20%)”; for `O=C(CCc1nnc2ccc(N3CCCCC3)nn12)NC1CCN(Cc2ccccc2)CC1` [LIT-TB002, N-(1-benzylpiperidin-4-yl)-3-[6-(piperidin-1-yl)-[1,2,4]triazolo[4,3-b]pyridazin-3-yl]propanamide] it is “++ (++: 20-35%)”; for `CN1CCN(c2ccc3nnc(CCC(=O)NC4CCN(CC5CCCCC5)CC4)n3n2)CC1` [LIT-TB031, N-[1-(cyclohexylmethyl)piperidin-4-yl]-3-[6-(4-methylpiperazin-1-yl)-[1,2,4]triazolo[4,3-b]pyridazin-3-yl]propanamide] it is “+++ (+++: >35%)”.
As to `COc1ccc(CN2CCC(NC(=O)CCc3nnc4ccc(N5CCN(C)CC5)nn34)CC2)cc1` [LIT-TB017, N-{1-[(4-methoxyphenyl)methyl]piperidin-4-yl}-3-[6-(4-methylpiperazin-1-yl)-[1,2,4]triazolo [4,3-b]pyridazin-3-yl]propanamide], the “PAM TrkB activity” value is “+++ (+++: >35%)”.
Turning to `CN1CCN(c2ccc3nnc(CCC(=O)NC4CCN(Cc5ccc(Cl)cc5)CC4)n3n2)CC1` [LIT-TB028, N-{1-[(4-chlorophenyl)methyl]piperidin-4-yl}-3-[6-(4-methylpiperazin-1-yl)-[1,2,4]triazolo[4,3-b]pyridazin-3-yl]propanamide], the “PAM TrkB activity” value is given as “+ (+: <20%)”.
As to `COc1ccc(CN2CCC(NC(=O)CCc3nnc4ccc(N5CCN(C)CC5)nn34)CC2)c(C)c1.Cl.Cl` [LIT-TB045, N-{1-[(4-methoxy-2-methylphenyl)methyl]piperidin-4-yl}-3-[6-(4-methylpiperazin-1-yl)-[1,2,4]triazolo[4,3-b]pyridazin-3-yl]propanamide dihydrochloride], the “PAM TrkB activity” value is listed as “+++ (+++: >35%)”.

The values above are taken from US20220389019A1, “TrkB POSITIVE ALLOSTERIC MODULATORS” (Université de Strasbourg, priority 2019, published 2022).
